Results as given in article PMC3914206.

Experiments:
panel of 442 kinases [1] = molecular target: T1, panel of 442 kinases (Homo sapiens, UniProt Q99640); assay type: binding; conditions: Compound Concentration 10 µM
T1 construct: purchased KINOMEscan
T1 sequence (Q99640 1-499): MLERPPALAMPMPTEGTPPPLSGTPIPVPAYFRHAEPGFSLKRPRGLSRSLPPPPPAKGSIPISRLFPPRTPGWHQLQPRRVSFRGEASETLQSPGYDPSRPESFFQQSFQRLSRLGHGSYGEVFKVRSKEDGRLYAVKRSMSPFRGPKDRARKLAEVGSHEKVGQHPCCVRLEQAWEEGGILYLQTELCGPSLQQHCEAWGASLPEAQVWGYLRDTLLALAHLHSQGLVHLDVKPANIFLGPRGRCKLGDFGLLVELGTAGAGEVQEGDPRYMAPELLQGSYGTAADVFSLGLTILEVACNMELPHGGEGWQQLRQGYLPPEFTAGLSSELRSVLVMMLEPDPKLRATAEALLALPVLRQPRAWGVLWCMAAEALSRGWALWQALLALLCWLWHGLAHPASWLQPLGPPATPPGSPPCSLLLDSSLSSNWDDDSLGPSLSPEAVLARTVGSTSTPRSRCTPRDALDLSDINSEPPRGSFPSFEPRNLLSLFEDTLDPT
Excerpt: (§1) We assessed the selectivity of members of this scaffold using the KINOMEscan methodology across a near comprehensive panel of 442 kinases [[18,27]].

panel of 442 kinases [2] = molecular target: T2, panel of 442 kinases (Homo sapiens, UniProt P53671); assay type: binding; conditions: Compound Concentration 10 µM
T2 construct: purchased KINOMEscan
Excerpt: as §1

T2 sequence (P53671 whole entry): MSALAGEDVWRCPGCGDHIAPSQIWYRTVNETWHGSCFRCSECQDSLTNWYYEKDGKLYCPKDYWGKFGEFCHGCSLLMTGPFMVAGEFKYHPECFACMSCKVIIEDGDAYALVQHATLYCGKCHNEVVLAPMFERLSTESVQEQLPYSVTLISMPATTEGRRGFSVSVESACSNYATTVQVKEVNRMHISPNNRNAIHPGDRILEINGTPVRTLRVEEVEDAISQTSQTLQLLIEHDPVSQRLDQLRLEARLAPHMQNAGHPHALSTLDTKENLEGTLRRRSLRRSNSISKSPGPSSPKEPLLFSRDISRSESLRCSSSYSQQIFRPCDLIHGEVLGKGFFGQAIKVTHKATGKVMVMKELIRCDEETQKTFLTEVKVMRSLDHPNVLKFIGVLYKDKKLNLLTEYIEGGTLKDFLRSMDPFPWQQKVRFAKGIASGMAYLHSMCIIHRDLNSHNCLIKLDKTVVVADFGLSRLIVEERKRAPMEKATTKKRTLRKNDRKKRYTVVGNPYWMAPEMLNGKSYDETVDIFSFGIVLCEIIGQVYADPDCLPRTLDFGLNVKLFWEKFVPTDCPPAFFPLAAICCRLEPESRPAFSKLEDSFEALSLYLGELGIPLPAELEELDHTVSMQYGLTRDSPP

SMILES	KINOMEscan: PKMYT1 (panel of 442 kinases [1])	KINOMEscan: LIMK2 (panel of 442 kinases [2])
COc1cc(C(=O)N2CCC(N3CCN(C)CC3)CC2)ccc1Nc1ncc2c(n1)N(C1CCCC1)c1ccccc1C(=O)N2C [Compound 25, 11-cyclopentyl-2-((2-methoxy-4-(4-(4-methylpiperazin-1-yl)piperidine-1-carbonyl)phenyl)amino)-5-methyl-5H-benzo[e]pyrimido[5,4-b][1,4]diazepin-6(11H)-one]	100	100
CCOc1cc(C(=O)N2CCC(N3CCN(C)CC3)CC2)ccc1Nc1ncc2c(n1)N(C1CCCC1)c1ccccc1C(=O)N2C [Compound 26]	100	100
COc1cc(C(=O)N2CCC(N3CCN(C)CC3)CC2)ccc1Nc1ncc2c(n1)N1CCc3cccc(c31)C(=O)N2C [Compound 24]	70	
COc1cc(C(=O)N2CCC(N3CCN(C)CC3)CC2)ccc1Nc1ncc2c(n1)N(C)c1ccccc1C(=O)N2C [15 (LRRK2-IN-1)]	80	100
